From PubChem BioAssay (NCI)
Where “and” joins values, the source holds several entries; their conditions need not be identical. Identical values can stand only once.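 Values below derive from 48-hour exposures of cells grown in 96-well plates, with endpoints linearly interpolated between the two concentrations bracketing the appropriate inhibition level. Here, GI50 denotes the concentration required for 50% inhibition of growth. The concentration for full growth arrest is given as TGI.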

What was measured:
Test in all cases: inhibition of tumour cell growth, NCI panel, 48 h
[1] = tested on: SK-MEL-2 melanoma
[2] = tested on: MCF7 breast
[3] = tested on: HL-60(TB) leukemia
[4] = tested on: UO-31 renal
[5] = tested on: RXF 393 renal
[6] = tested on: SK-MEL-28 melanoma
[7] = tested on: HCC-2998 colon
[8] = tested on: NCI-H522 lung
[9] = tested on: K-562 leukemia
[10] = tested on: OVCAR-5 ovarian

| Compound | GI50 [1] | TGI [1] | GI50 [2] | TGI [2] | GI50 [3] | TGI [3] | GI50 [4] | TGI [4] | GI50 [5] | TGI [5] | GI50 [6] | TGI [6] | GI50 [7] | TGI [7] | GI50 [8] | TGI [8] | GI50 [9] | TGI [9] | GI50 [10] | TGI [10] |
| --- | --- | --- | --- | --- | --- | --- | --- | --- | --- | --- | --- | --- | --- | --- | --- | --- | --- | --- | --- | --- |
| CC(=O)Oc1cc2c(OC(C)=O)c(-c3c(C)cc4c(C(C)C)c(OC(C)=O)c(OC(C)=O)cc4c3OC(C)=O)c(C)cc2c(C(C)C)c1OC(C)=O | 7.83 µM and 10.8 µM | 31.8 µM | 6.42 µM and 7.03 µM and 10.3 µM | 19.5 µM and 21.5 µM and 27.1 µM | 13.1 µM and 3.07 µM and 4.8 µM | 33.2 µM and 9.99 µM and 16.2 µM | 5.73 µM and 5.67 µM and 11.8 µM | 13.3 µM and 11.9 µM and 33.8 µM | 14 µM and 16.3 µM and 4.05 µM | 30.6 µM and 34.5 µM and 14.9 µM | 5.12 µM and 15.3 µM and 18.8 µM | 12.4 µM and 35.1 µM and 41.1 µM | 4.23 µM and 5.12 µM and 18.4 µM | 8.3 µM and 9.51 µM and 34.3 µM | 5.15 µM and 1.52 µM and 5.49 µM | 10.5 µM and 3.23 µM and 11.5 µM | 21.3 µM and 6.13 µM and 9.67 µM | 63.1 µM and > 21.4 µM and 25.8 µM | 5.86 µM and 5.87 µM and 9.81 µM | 13.6 µM and 12.9 µM and 25 µM |
| O=C(NCc1ccncc1)C12CC3CC(C1)CC(c1ccc(Cl)cc1)(C3)C2 | 14.2 µM | 28.1 µM | 10.2 µM | 27.8 µM | 5.58 µM | 27.1 µM | 10.2 µM | 22 µM | 10.7 µM | 23.6 µM | 12.7 µM | 25.5 µM | 14.3 µM | 29.4 µM | 13.5 µM | 28.8 µM | 6.93 µM | 34.9 µM | 14 µM | 28.7 µM |
| CN(C)CCCNC(=O)c1cncnc1Nc1ccc(OCc2cccc(F)c2)c(Cl)c1 | 2.08 µM | 4.07 µM | 1.56 µM | 3.06 µM | 1.67 µM | 3.52 µM | 1.46 µM | 2.77 µM | 1.51 µM | 2.87 µM | 1.79 µM | 3.22 µM | 1.55 µM | 3.01 µM | 2 µM | 3.86 µM | 1.74 µM | 3.73 µM | 1.67 µM | 3.07 µM |
| COc1cnc2c(c1)C(=O)c1c-2n(CCCNC(C)C)c(=O)c2cc(F)ccc12 | 0.51 µM | 1.92 µM | 0.0318 µM | 2.08 µM | 0.161 µM | 0.615 µM | 0.0801 µM | 0.34 µM | 0.23 µM | 0.702 µM | 0.94 µM | 2.51 µM | 0.397 µM | 1.75 µM | 0.0385 µM | 0.376 µM | 0.129 µM | 1.72 µM | 0.277 µM | 0.856 µM |
| O=c1c2ccccc2c2ccccc2c(=O)n1Cc1ccc2c(c1)OCO2 |  | > 80.2 µM |  | > 100 µM |  | 52 µM |  | > 100 µM |  | > 84.2 µM |  | > 100 µM |  | > 100 µM |  | > 100 µM |  | > 28 µM |  | > 100 µM |
| COc1cc(-c2nn(-c3cccc(NC(=O)c4ccc(N5CCOCC5)c(C(F)(F)F)c4)c3)cc2-c2ccncc2)ccc1Cl | 0.21 µM | 2.46 µM | 0.263 µM | > 100 µM | 0.233 µM |  | 0.322 µM | 8.77 µM | 0.207 µM | 0.809 µM | 0.936 µM | > 84.8 µM | 1.5 µM | 7 µM | 0.0606 µM | 0.915 µM | 0.0555 µM | > 100 µM | 1.2 µM | > 86.4 µM |
| Cc1ccc(-c2nc(N3CCCNCC3)c3oc(-c4ccccc4)nc3n2)cc1 | 2.03 µM | 3.77 µM | 1.59 µM | 3.44 µM | 1.35 µM | 3.17 µM | 1.49 µM | 2.85 µM | 1.75 µM | 3.29 µM | 1.85 µM | 3.39 µM | 1.82 µM | 3.27 µM | 1.72 µM | 3.29 µM |  |  | 1.9 µM | 3.38 µM |
| Cc1ncsc1-c1ccc(CNC(=O)[C@@H]2C[C@@H](O)CN2C(=O)[C@@H](NC(=O)C2(C#N)CC2)C(C)(C)C)cc1 | > 100 µM | > 100 µM | > 100 µM | > 100 µM | > 100 µM | > 100 µM | > 100 µM | > 100 µM | > 100 µM | > 100 µM | > 100 µM | > 100 µM | > 100 µM | > 100 µM | > 100 µM | > 100 µM |  |  | > 100 µM | > 100 µM |
| CCCCN(CCCC)CCCn1c(=O)c2c3ccccc3n(C)c2n2nnc(-c3ccccc3)c12 | > 100 µM | > 100 µM | 37.2 µM | > 100 µM | 2.54 µM | 41.7 µM | 6.06 µM | 46.8 µM | 14.1 µM | 43 µM | > 100 µM | > 100 µM | 20.3 µM | > 100 µM |  |  | 13.9 µM | > 100 µM | 22.3 µM | > 100 µM |
| OCC1OC(n2cnc3c(Cl)nc(Cl)cc32)C(O)C1O (stereo unspecified) |  |  | > 100 µM | > 100 µM | > 100 µM | > 100 µM | > 100 µM | > 100 µM | > 100 µM | > 100 µM | > 100 µM | > 100 µM | > 100 µM | > 100 µM | > 100 µM | > 100 µM | > 100 µM | > 100 µM | > 100 µM | > 100 µM |
